Assay results published in patent US10463716B2 (UNIVERSITY OF MARYLAND, BALTIMORE, priority 2014, dated 2019).

Assays:
mouse aortic rings = assay: Endothelium-dependent and -independent vasorelaxation of aortic rings; conditions: for decrease of relaxation by removal of endothelium: denuded vs endothelium-intact vessels
Experimental: Aortas were isolated from 8-10 weeks male wild-type C57BL/6 mice, cut into 3-mm rings and mounted in organ chambers (PowerLab, AD Instruments, CO, USA) in Kreb's buffer as described previously (11, 12). The contractile response was elicited by vasoconstrictor U46619 (30 nM) to produce contraction. […] In some preparations, the endothelium was mechanically removed from denuded arteries by gentle rubbing off the intimal surface with a wooden stick.
Apelin is reported to relax vascular tone (14) and lower blood pressure. […] The aortic rings were induced to contraction with vasoconstrictor U46619 (final concentration, 30 nM).
To further determine whether nitric oxide (NO) participated in the relaxation, the blood vessels were pretreated with L-NAME, an NO production inhibitor. […] The effect of apelin-13 on blood vessels was studied in parallel for comparison.

HUVECs = assay: In vitro angiogenesis (tube formation) assay; assay type: cell-based, human
Experimental: Tube formation assay for angiogenesis was conducted in 24-well plates were coated with 50 μl of Geltrex (Life Technologies, A14133-02) and left for polymerization by incubation for 1 hour at 37° C. […] Quantification of tube formation was performed after 10 hours of culture by calculating the number of branching point formed in each well under an inverted phase contrast photomicroscope (Olympus IX5O) as described^37.
ELA is a secreted hormone and expressed in adult kidney and prostate, and may, therefore, circulate in blood. […] Vascular tube formation assay is a well-used in vitro study to assess angiogenic factors and conditions in which vascular cells, e.g., human umbilical […] endothelial cells (HUVECs), can form tube-like structures under proangiogenic conditions in culture wells coated with Geltrex containing extra-cellular matrix. The number of branch points was an indicator of the strength of angiogenic stimuli.

Sprague-Dawley rats = assay: MI-induced heart failure by coronary artery ligation in rats, Fc-ELA-32; assay type: in vivo, rat
Experimental: It was studied whether Fc-ELA fusion proteins have cardioprotective activities in heart failure caused by myocardial infarction (MI) in rats. MI was inflicted by standard left anterior descending coronary artery ligation (CAL) in Sprague-Dawley rats (8-weeks old, male). One week post-operation, recombined Fc-ELA-32 protein was administrated by subcutaneous injection at the dosage of 300 μg/kg bodyweight/day for two weeks. Phosphate-buffered saline (PBS) was used as the control. One week after the administration or at the end of the four weeks of MI, cardiac performance was evaluated by a pressure transducer which was inserted retrograde from the right carotid artery to the left ventricle cavity. Heart tissue samples were taken and fixed with 4% paraformaldehyde for 24 hours and then embedded in paraffin and sectioned for histopathologic examination.
Apoptosis was assessed by terminal deoxynucleotidyl transferase-mediated dUTP nick end labeling (TUNEL) and caspase-3 activity assay. […] TUNEL-positive nuclei in the LV free wall were counted within a 4-mm^2 square of field. […]
Masson staining which specifically stains collagens in blue was conducted on tissue sections of the infarcted heart area. Collagen volume fraction (CVF) is calculated by dividing of the blue stained area, which scattered between the surviving myocytes and around the blood vessels by the total area. […]

human cardiomyocytes = assay: Hypoxia-induced apoptosis (TUNEL) in cardiomyocytes from human pluripotent stem cells; assay type: cell-based; conditions: ELA 0.5 μM
From the text: Cellular mechanisms of cardioprotection in MI include the less cell death due to necrosis and apopotosis, increased angiogenesis and reduced fibrosis. […] Apelin is reported to protect against glucose deprivation-induced apoptosis in rat neonatal cardiomyocytes and to increase Akt and mTOR phosphorylation.

[1] = tested on: empty vector control CHO-K 1 cells; assay: Parallel control experiments (cAMP, ERK, calcium) in empty vector cells; assay type: cell-based, Chinese hamster; conditions: cells transduced with empty vector control viruses
From the text: Activation of APJ is known to result in a decrease of cAMP production, stimulation of ERK and increase in intercellular calcium mobilization (13). […] APJ-over-expressing and empty vector control CHO-K 1 cells were used in the studies. APJ expression was confirmed by RT-PCR. […] The response was dose-dependent up to the concentration of 10^−5M (FIG. 3C, lower panel).

[2] = tested on: aldosterone synthase CYP11B2; assay: Ang II-induced aldosterone synthase gene expression (qPCR) in HAC15 cells; assay type: cell-based, human; conditions: ELA 50 nM, Ang II 10 nM, 47 hours
C57/BL6 mice = assay: Diuresis in anesthetized mice; assay type: in vivo, mouse; conditions: 200 nmol/kg intravenously, one hour collection vs baseline hour
From the text: Four male C57/BL6 mice aged from 10 to 12 weeks were anesthetized with pentobarbital and then placed on a heated table to maintain body temperature and tracheotomized. Catheters were inserted into the external jugular veins for infusing normal saline to replace fluid loss and anesthesia, and into carotid artery for measuring blood pressure and heart rates. Urine was collected via a suprapubic cystostomy (PE-50-flanged end). After a 30-min stabilization period, urine was collected for a period of one hour as a baseline volume.

[3] = tested on: human pluripotent stem cells (PSCs); assay: Cardiomyocyte differentiation from pluripotent stem cells; assay type: cell-based; conditions: data not shown
From the text: The question of whether ELA-APJ promotes human pluripotent stem cells (PSCs) into mesoderm derivatives including mesenchymal stem cells, adipocytes and cardiomyocytes was studied. […] Without being bound by theory, the kidney is a crucial organ that maintains circulation homeostasis.

[4] = mature ELA hormone; cited from earlier work
APJ = assay: qPCR of APJ mRNA in mice infused with ELA; assay type: in vivo, mouse
C57/BL mice = assay: MI-induced heart failure by coronary artery ligation, echocardiography; assay type: in vivo, mouse
Experimental: C57/BL wild type mice at age of 14-16 months old were used. Mice were subjected to either MI by permanent ligation or sham treatment with a loose suture of the proximal left anterior descending (LAD) coronary artery under general anesthesia by 2% isoflurane inhalation, and mechanical ventilation via oral intubation. Left thoracotomy in the 3-4 intercostal space was performed and the pericardium was opened to expose the LV and the LAD. The artery was circled a 8-0 silk suture, and then either ligated permanently or remained loose (sham).
Twelve to 14 mice were used in each group.
Data were calculated with the accepted formulae, which have been validated in mice.
Coronary artery ligation (CAL) is a well-used procedure to create a mouse model of acute myocardial infarction (MI) and heart failure (HF). […] Echocardiography was conducted to access heart function before the procedure (baseline), and at 1 week and 5 weeks post-MI.

[5] = endothelium-intact vessels, contracted with U46619 30 nM

With apelin-13 [reference compound] the maximum relaxation (mouse aortic rings; denuded (endothelium removed) vessels) was 31%, the “decrease of relaxation by removal of endothelium” value (mouse aortic rings) was 48% and the maximum relaxation (mouse aortic rings; [5]) was 79%.
For CSCC[C@H](NC(=O)[C@@H](NC(=O)[C@H](CC(C)C)NC(=O)[C@H](CC(N)=O)NC(=O)[C@@H](NC(=O)[C@@H]1CCCN1C(=O)[C@H](CCCNC(=N)N)NC(=O)[C@@H](N)CCC(N)=O)C(C)C)[C@@H](C)O)C(=O)N[C@@H](CCCNC(=N)N)C(=O)N[C@@H](CCCNC(=N)N)C(=O)N[C@@H](CCCCN)C(=O)N[C@@H](CC(C)C)C(=O)N[C@@H](CCCNC(=N)N)C(=O)N[C@@H](CCCCN)C(=O)N[C@@H](Cc1c[nH]cn1)C(=O)N[C@@H](CC(N)=O)C(=O)N[C@H]1CSSC[C@@H](C(=O)N[C@@H](CCSC)C(=O)N2CCC[C@H]2C(=O)N[C@@H](CC(C)C)C(=O)N[C@@H](Cc2c[nH]cn2)C(=O)N[C@@H](CO)C(=O)N[C@@H](CCCNC(=N)N)C(=O)N[C@H](C(=O)N2CCC[C@H]2C(=O)N[C@@H](Cc2ccccc2)C(=O)N2CCC[C@H]2C(=O)O)C(C)C)NC(=O)[C@H](CCCNC(=N)N)NC(=O)[C@H](CCCNC(=N)N)NC(=O)[C@H](CCC(N)=O)NC(=O)[C@H](CC(C)C)NC1=O [ELA, Elabela], the “formation of tubular structures” value (HUVECs; APJ-knock down HUVECs) was “not effective”, the “increase in number of branch points” value (HUVECs; ELA 0.1 μM) was 71.9% and the “increase in number of branch points” value (HUVECs; ELA 0.5 μM) was 222.8%. The “increase in number of branch points” value (HUVECs; ELA 1 μM) was 266.7%, the “TUNEL green-labeled apoptotic cells in heart sections” value (Sprague-Dawley rats) was “much less green-labeled cells” and the “number of TUNEL-stained cells” value (human cardiomyocytes) was “significantly reduced”. For the same molecule, the “decrease of relaxation by removal of endothelium” value (mouse aortic rings) was “about 20%”, the maximum relaxation (mouse aortic rings; [5]) was 73.7% and the “relaxation, L-NAME-treated vs none-treated vessels” value (mouse aortic rings; pretreated with 1 mM L-NAME) was “No significant difference”. The “changes in cAMP, ERK ½ and calcium assays in empty vector control cells” value [1] was “no meaningful changes”, the “Ang II-induced gene expression of aldosterone synthase” value [2] was “significantly suppressed” and the urine volume (C57/BL6 mice) was “increased by about one fold”. For the same molecule, the “cardiomyocyte differentiation from PSCs” value [3] was “potent inducer of cardiomyocyte differentiation”, the isoelectric point [4] was “exceeding 12” and the “APJ mRNA expression” value (APJ) was “tended to decrease”. The FS_LVD (C57/BL mice; MI mice, ELA group, Baseline) was 29.65 ± 4.16%, the FS_LVPW (C57/BL mice; MI mice, ELA group, Baseline) was 30.36 ± 3.65% and the IVSd (C57/BL mice; MI mice, ELA group, Baseline) was 0.61 ± 0.05 mm. It also gave an IVSs (C57/BL mice; MI mice, ELA group, Baseline) of 0.99 ± 0.04 mm, an LVDd (C57/BL mice; MI mice, ELA group, Baseline) of 3.87 ± 0.20 mm and an LVDs (C57/BL mice; MI mice, ELA group, Baseline) of 2.68 ± 0.11 mm. For the same molecule, the LVEF (C57/BL mice; MI mice, ELA group, Baseline) was 61.84 ± 7.39%, the LVPWd (C57/BL mice; MI mice, ELA group, Baseline) was 0.70 ± 0.03 mm and the LVPWs (C57/BL mice; MI mice, ELA group, Baseline) was 1.01 ± 0.04 mm. For the same molecule, the FS_LVD (C57/BL mice; MI mice, ELA infusion, Week 5) was 22.68 ± 1.21 %, the FS_LVPW (C57/BL mice; MI mice, ELA infusion, Week 5) was 22.46 ± 4.49% and the IVSd (C57/BL mice; MI mice, ELA infusion, Week 5) was 0.73 ± 0.07 mm. It also gave an IVSs (C57/BL mice; MI mice, ELA infusion, Week 5) of 0.96 ± 0.11 mm, an LVDd (C57/BL mice; MI mice, ELA infusion, Week 5) of 4.48 ± 0.17 mm and an LVDs (C57/BL mice; MI mice, ELA infusion, Week 5) of 3.47 ± 0.16 mm. The LVEF (C57/BL mice; MI mice, ELA infusion, Week 5) was 45.65 ± 2.16 %, the LVPWd (C57/BL mice; MI mice, ELA infusion, Week 5) was 0.75 ± 0.05 mm and the LVPWs (C57/BL mice; MI mice, ELA infusion, Week 5) was 0.97 ± 0.04 mm. The “degree of left ventricular dilation and contractile dysfunction” value (C57/BL mice; MI mice, ELA vs vehicle) was “significantly mitigated”, the “mice died during the experimental period” value (C57/BL mice; MI mice, one-month experimental period, control three of nine) was “one of eight” and the “heart performance in sham op animals, vehicle vs ELA” value (C57/BL mice; sham op mice) was “no statistical difference”.
